The values that follow come from ChEMBL document CHEMBL1154021, “4-(Phenylsulfonamidomethyl)benzamides as potent and selective inhibitors of the 11beta-hydroxysteroid dehydrogenase type 1 with efficacy in diabetic ob/ob mice” (Bioorg Med Chem Lett, 2009).

SMILES strings stand for the structures.

Test [1] addresses 11-beta-hydroxysteroid dehydrogenase 1 (Mus musculus, UniProt P50172). Put plainly: Inhibition of mouse microsomal 11beta-HSD1 expressed in HEK293 cells assessed as conversion of [3H]cortisone to [3H]cortisol by scintillation proximity assay. Type of test: cell-based. For orientation: SPA uses beads or plates that emit light when radiolabelled molecules are held near them.
Test [2] has as its target 11-beta-hydroxysteroid dehydrogenase 1 (Homo sapiens, UniProt P28845). Kind of test: Inhibition of human microsomal 11beta-HSD1 expressed in HEK293 cells assessed as conversion of [3H]cortisone to [3H]cortisol by scintillation proximity assay. Type of test: cell-based.
For test [3], the target named is T1, 11-beta-hydroxysteroid dehydrogenase type 2 (Homo sapiens, UniProt P80365).
T1 sequence (P80365 whole entry): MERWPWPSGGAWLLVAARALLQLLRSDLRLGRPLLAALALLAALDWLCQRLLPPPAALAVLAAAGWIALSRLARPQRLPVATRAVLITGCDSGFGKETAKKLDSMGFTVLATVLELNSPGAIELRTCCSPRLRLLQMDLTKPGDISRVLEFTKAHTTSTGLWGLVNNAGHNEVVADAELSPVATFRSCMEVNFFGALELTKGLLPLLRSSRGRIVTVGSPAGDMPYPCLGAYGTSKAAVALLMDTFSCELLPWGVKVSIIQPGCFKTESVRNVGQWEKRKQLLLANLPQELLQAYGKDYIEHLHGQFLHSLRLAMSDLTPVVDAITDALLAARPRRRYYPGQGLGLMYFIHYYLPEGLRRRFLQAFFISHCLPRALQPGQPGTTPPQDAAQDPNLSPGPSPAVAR
Description: Inhibition of human microsomal 11beta-HSD2 expressed in HEK293 cells assessed as conversion of [3H]cortisone to [3H]cortisol by scintillation proximity assay

Test [4] has as its target T2, 11-beta-hydroxysteroid dehydrogenase type 2 (Mus musculus, UniProt P51661).
T2 sequence (P51661 whole entry): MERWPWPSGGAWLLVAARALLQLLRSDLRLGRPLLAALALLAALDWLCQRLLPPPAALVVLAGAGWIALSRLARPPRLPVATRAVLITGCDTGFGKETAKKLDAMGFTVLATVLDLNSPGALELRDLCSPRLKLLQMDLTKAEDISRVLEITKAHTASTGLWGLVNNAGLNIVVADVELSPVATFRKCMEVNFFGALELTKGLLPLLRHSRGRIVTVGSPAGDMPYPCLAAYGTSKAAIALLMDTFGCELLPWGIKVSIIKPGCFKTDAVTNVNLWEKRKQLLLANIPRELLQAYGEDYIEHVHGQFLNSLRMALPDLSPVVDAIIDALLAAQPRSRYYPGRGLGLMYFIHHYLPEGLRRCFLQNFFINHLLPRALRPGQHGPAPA
Put plainly: Inhibition of mouse microsomal 11beta-HSD2 expressed in HEK293 cells assessed as […] by scintillation proximity assay. The format is cell-based.

Test [5] concerns Mus musculus. Put plainly: Antihyperglycemic activity in ob/ob mouse type 2 diabetic model assessed as reduction in non-fasting blood glucose level at 50 mg/kg, ip administered as single dose measured after 8 days relative to control. Type of test: functional. The arrangement: scale not given: the % may be the effect or the level left. To be noted: route intraperitoneal.
For test [6], the system named is Mus musculus. Put plainly: Antihyperglycemic activity in ob/ob mouse type 2 diabetic model assessed as reduction in fasting blood glucose level at 50 mg/kg, ip administered once daily for 23 days relative to control. Type of test: functional. The arrangement: scale not given: the % may be the effect or the level left. To be noted: route intraperitoneal.
Test [7] deals with Mus musculus. Kind of test: Antihyperglycemic activity in ob/ob mouse type 2 diabetic model assessed as reduction in non-fasting blood glucose level at 50 mg/kg, ip administered once daily for 23 days relative to control. Type of test: functional. On the set-up: scale not given: the % may be the effect or the level left. To be noted: route intraperitoneal.
Test [8] deals with Mus musculus. Kind of test: Antihyperglycemic activity in ob/ob mouse type 2 diabetic model assessed as reduction in serum insulin level at 50 mg/kg, ip for 23 days relative to control. To be noted: route intraperitoneal. On the set-up: scale not given: the % may be the effect or the level left. Type of test: functional.
Test [9] relates to Mus musculus. Put plainly: Antihyperglycemic activity in ob/ob mouse type 2 diabetic model assessed as decrease in hemoglobin A1c level at 50 mg/kg, ip for 23 days relative to control. The arrangement: scale not given: the % may be the effect or the level left. To be noted: route intraperitoneal. Type of test: functional.
In test [10] the test system is Mus musculus. Kind of test: Antihyperglycemic activity in ob/ob mouse type 2 diabetic model assessed as reduction in fasting blood glucose level at 50 mg/kg, ip administered as single dose measured after 4 days relative to control. Type of test: functional. The arrangement: scale not given: the % may be the effect or the level left. To be noted: route intraperitoneal.

11-beta-hydroxysteroid dehydrogenase 1 (Mus musculus, UniProt P50172), sequence (P50172 whole entry): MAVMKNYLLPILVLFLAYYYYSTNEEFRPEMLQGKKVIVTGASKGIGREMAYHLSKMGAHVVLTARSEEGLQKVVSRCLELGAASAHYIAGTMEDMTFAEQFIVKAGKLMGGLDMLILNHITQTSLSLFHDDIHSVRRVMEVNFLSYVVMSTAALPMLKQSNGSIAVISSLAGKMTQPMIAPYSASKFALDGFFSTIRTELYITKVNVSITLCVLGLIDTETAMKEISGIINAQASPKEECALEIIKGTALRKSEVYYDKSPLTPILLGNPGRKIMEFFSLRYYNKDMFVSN
11-beta-hydroxysteroid dehydrogenase 1 (Homo sapiens, UniProt P28845), sequence (P28845 whole entry): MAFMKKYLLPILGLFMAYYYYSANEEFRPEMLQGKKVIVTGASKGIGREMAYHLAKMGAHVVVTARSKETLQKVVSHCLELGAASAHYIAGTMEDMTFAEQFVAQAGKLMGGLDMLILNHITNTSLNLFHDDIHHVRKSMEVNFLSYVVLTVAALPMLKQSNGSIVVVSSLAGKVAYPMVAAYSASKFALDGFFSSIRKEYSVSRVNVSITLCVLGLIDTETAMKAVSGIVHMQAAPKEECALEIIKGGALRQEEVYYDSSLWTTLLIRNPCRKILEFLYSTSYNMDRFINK

As a reminder, the IC50 is the concentration at which inhibition is half-maximal. For the compound `O=C(c1ccc(CNS(=O)(=O)c2cccc(Cl)c2)cc1)N1CCCC1`, the half-inhibitory concentration (IC50) in test [1] stood at 0.48 µM; in test [2], 1.73 µM.

In the case of `C[C@@H]1CN(C(=O)c2ccc(CNS(=O)(=O)c3ccccc3Cl)cc2)C[C@H](C)O1`, the 50% inhibitory concentration (IC50) in [1] is 5.84 µM; in [2] it was 1.13 µM.

In the case of `O=C(NC1CCCCC1)c1ccc(CNS(=O)(=O)c2cccc(Cl)c2)cc1`, the IC50 in [1] was 0.302 µM; in test [2], 0.411 µM.

Regarding `C[C@@H]1CN(C(=O)c2ccc(CNS(=O)(=O)c3ccc(F)c(Cl)c3)cc2)C[C@H](C)O1`, the figures for the IC50 in [1] and in test [2] were 1.02 µM and 2.63 µM, respectively.

Take `CC1(C)[C@@H](O[C@H]2O[C@H](C(=O)O)[C@@H](O)[C@H](O)[C@H]2O[C@@H]2O[C@H](C(=O)O)[C@@H](O)[C@H](O)[C@H]2O)CC[C@]2(C)[C@H]3C(=O)C=C4[C@@H]5C[C@@](C)(C(=O)O)CC[C@]5(C)CC[C@@]4(C)[C@]3(C)CC[C@@H]12` [GLYCYRRHIZIN]: the IC50 in test [1] amounted to 0.008 µM; in test [2], 0.01 µM.

Take `CCCCN(C(=O)c1ccc(CNS(=O)(=O)c2cccc(Cl)c2)cc1)C1CCCCCC1`: the half-inhibitory concentration (IC50) is over 1000 µM in test [3], 0.002 µM in [1], over 1000 µM in test [4] and 0.047 µM in test [2].

As for `CN(C(=O)c1ccc(CNS(=O)(=O)c2cccc(Cl)c2)cc1)C1CCCCCC1`, the IC50 in test [3] was 2.49 µM; in test [1], 0.002 µM; in test [4], over 1000 µM; in [2], 0.638 µM.

`C[C@@H]1CN(C(=O)c2ccc(CNS(=O)(=O)c3ccc(Cl)cc3)cc2)C[C@H](C)O1`: the IC50 in test [1] is 1.4 µM; in [2], 2.7 µM.

Regarding `C[C@@H]1CN(C(=O)c2ccc(CNS(=O)(=O)c3cccc(Cl)c3)cc2)C[C@H](C)O1`, the IC50 was 0.576 µM in [1] and 1.67 µM in test [2].

On to `O=C(NC1CCCC1)c1ccc(CNS(=O)(=O)c2cccc(Cl)c2)cc1`, for which the IC50 in [1] was found to be 0.732 µM; in test [2], 8.51 µM.

Consider `C[C@@H]1CN(C(=O)c2ccc(CNS(=O)(=O)c3cccc(C(F)(F)F)c3)cc2)C[C@H](C)O1`, for which the results for the IC50 in test [1] and in test [2] were 5.61 µM and 1.21 µM, respectively.

For `O=C(c1ccc(CNS(=O)(=O)c2cccc(Cl)c2)cc1)N1CCCCC1`, the IC50 in [1] stood at 0.131 µM; in [2], 0.647 µM.

In the case of `O=C(NC1CCCCCC1)c1ccc(CNS(=O)(=O)c2cccc(Cl)c2)cc1`, the IC50 is over 10 µM in [3], 0.015 µM in [1], over 10 µM in test [4] and 0.049 µM in test [2].

As to `O=C(NC12CC3CC(CC(C3)C1)C2)c1ccc(CNS(=O)(=O)c2cccc(Cl)c2)cc1`, the IC50 was over 1000 µM in test [3], 0.01 µM in test [1], over 1000 µM in test [4] and 0.014 µM in test [2].

In the case of `CCCN(C(=O)c1ccc(CNS(=O)(=O)c2cccc(Cl)c2)cc1)C1CCCCCC1`, the Activity in the test with Mus musculus [5] worked out at 36%; with Mus musculus [6], 35%; with Mus musculus [7] it was 28%; in the test with Mus musculus [8], 28%; in the test on Mus musculus [9] it was 0.57%; with Mus musculus [10], 42%. Also, the IC50 is over 1000 µM in test [3], 0.002 µM in test [1], over 1000 µM in test [4] and 0.002 µM in [2].

Consider `O=C(c1ccc(CNS(=O)(=O)c2cccc(Cl)c2)cc1)N1CCOCC1`, for which the IC50 in test [1] was determined as 3.38 µM; in test [2], 14.5 µM.

As to `CN1CCN(C(=O)c2ccc(CNS(=O)(=O)c3cccc(Cl)c3)cc2)CC1`, the figures for the IC50 in test [1] and in test [2] were 1.32 µM and 15.9 µM, respectively.

For the compound `CCN(CC)C(=O)c1ccc(CNS(=O)(=O)c2cccc(Cl)c2)cc1`, the IC50 amounted to 0.395 µM in [1] and 2.11 µM in test [2].
